Data: patent publication US20250326744A1, “PIPERAZINE DERIVATIVE OR SALT THEREOF, AND PHARMACEUTICAL COMPOSITION” (priority 2022, published 2025)
Where a name gives a salt, the structure may show the parent alone.

Key:
mexB (PA) strain = assay: Combinational effect with antibacterial agent against Pseudomonas aeruginosa (Test Examples 2 and 4): mexB (PA) strain with LVFX, TC or AZT at 1/4 MIC, EC99; type: cell-based; conditions: Table 52, Test Example 2, 16 to 20 hours culture, OD595; for EC99, mexB (PA), AZT: combined with AZT at 1/4 MIC; for EC99, mexB (PA), LVFX: combined with LVFX at 1/4 MIC; for EC99, mexB (PA), TC: combined with TC at 1/4 MIC
Method: (§1) The combinational effect of the test compound with the antibacterial agent against Pseudomonas aeruginosa was evaluated.
For the evaluation of the inhibitory ability against MexAB-OprM, a mutant strain of Pseudomonas aeruginosa in which MexAB-OprM was expressed as a main drug efflux pump (hereinafter, referred to as a “mexB (PA) strain”) was used. LVFX, TC, or AZT was used as the antibacterial agent used in combination.
The mexB (PA) strain is a strain produced by deleting the genes of MexCD-OprJ, MexEF-OprN, and MexXY in the drug efflux pump of Pseudomonas aeruginosa described in FEMS Microbiology Letters, 2001, Vol. 202, pp. 139 to 143. In the mexB (PA) strain, an expression level of MexB as a drug efflux pump is accelerated.
TC is a tetracycline-based antibacterial agent and is a drug that is discharged outside the bacteria by MexB. AZT is a monobactam-based antibacterial agent and is a drug that is discharged outside the bacteria by MexB.
(§2) AMK and GM are aminoglycoside-based antibacterial agents, and are drugs that are not discharged outside the bacteria by MexB but are discharged outside the bacteria by MexY For the culture of each Pseudomonas aeruginosa strain, a 96-well plate (amount of culture medium per well: 100 μL) was used, and cation-adjusted Mueller Hinton broth (CAMHB) was used. The inoculation amount of the bacteria was set to 10^4 to 5 CFU/well.
(§3) The mexB (PA) strain and the S-3769 strain were cultured for 16 to 20 hours in a culture medium to which each antibacterial agent and test compounds at various concentrations (0 to 800 μM) were added, and the proliferation of the bacterial strains was evaluated by optical turbidity at 595 nm (OD595). The concentration of the antibacterial agent in the culture medium was set to ¼ MIC.
(§4) The proliferation of bacteria in a case where the test compound and the antibacterial agent were not added was measured, and compared with the proliferation of bacteria in a case where the test compound in a case where the antibacterial agent was added at the concentration of ¼ MIC was contained, and the lowest concentration of the test compound at which the proliferation was inhibited by 99% or more was defined as the drug efflux pump inhibitory ability of the test compound as 99% inhibitory effect concentration (EC99).
(§5) The effect of suppressing the proliferation of each test compound in combination with an antibacterial agent at ¼ MIC for mexB (PA) or the S-3769 strain was evaluated as follows according to the value of EC99. • S: EC99≤12.5 μM • A: 12.5 μM<EC99≤25 μM • B: 25 μM<EC99≤100 μM • C: 100 μM<EC99
(§6) The combinational effect of the test compound with the antibacterial agent against Pseudomonas aeruginosa was evaluated in the same manner as in Test Example 2.

S-3769 strain = assay: Combinational effect with antibacterial agent against Pseudomonas aeruginosa (Test Examples 2 and 4): S-3769 strain with AMK or GM at 1/4 MIC, EC99; type: cell-based; conditions: Table 52, Test Example 2, 16 to 20 hours culture, OD595; for EC99, S-3769 strain, AMK: combined with AMK at 1/4 MIC; for EC99, S-3769 strain, GM: combined with GM at 1/4 MIC
Method: as §1
The […] was used for evaluating the inhibitory ability against MexXY-OprM. AMK or GM was used as the antibacterial agent used in combination.
The S-3769 strain is a clinically isolated strain collected from a domestic medical institution, and is a strain in which the expression level of MexY is accelerated.
as §2, §3, §4, §5, §6

Compound | EC99, mexB (PA), AZT (mexB (PA) strain) | EC99, mexB (PA), LVFX (mexB (PA) strain) | EC99, mexB (PA), TC (mexB (PA) strain) | EC99, S-3769 strain, AMK (S-3769 strain) | EC99, S-3769 strain, GM (S-3769 strain)
N[C@@H](C(=O)N1CCN(Cc2ccccc2OCC(F)(F)F)CC1)C1CCN(CCc2cc(Cl)ccc2-c2ccccc2)CC1 [Example 2, Hydrobromide of (R)-2-amino-2-(1-(2-(4-chloro-[1,1′-biphenyl]-2-yl)ethyl)piperidin-4-yl)-1-(4-(2-(2,2,2-trifluoroethoxy)benzyl)piperazin-1-yl) ethan-1-one] | B (25 μM<EC99≤100 μM) | C (100 μM<EC99) | B (25 μM<EC99≤100 μM) | S (EC99≤12.5 μM) | S (EC99≤12.5 μM)
CCOc1c(Cl)ccc(F)c1CN1CCN(C(=O)[C@H](N)C2CCN(CCc3cc(Cl)ccc3-c3ccccc3)CC2)CC1 [Example 9, Hydrobromide of (R)-2-amino-1-(4-(3-chloro-2-ethoxy-6-fluorobenzyl)piperazin-1-yl)-2-(1-(2-(4-chloro-[1,1′-biphenyl]-2-yl)ethyl)piperidin-4-yl) ethan-1-one] | B (25 μM<EC99≤100 μM) | C (100 μM<EC99) | B (25 μM<EC99≤100 μM) | A (12.5 μM<EC99≤25 μM) | A (12.5 μM<EC99≤25 μM)
N[C@@H](C(=O)N1CCN(Cc2cccc3c2OCCC3)CC1)C1CCN(CCc2cc(Cl)ccc2-c2ccccc2)CC1 [Example 10, Hydrobromide of (R)-2-amino-2-(1-(2-(4-chloro-[1,1′-biphenyl]-2-yl)ethyl)piperidin-4-yl)-1-(4-(chroman-8-ylmethyl)piperazin-1-yl)ethan-1-one] | A (12.5 μM<EC99≤25 μM) | A (12.5 μM<EC99≤25 μM) | A (12.5 μM<EC99≤25 μM) | A (12.5 μM<EC99≤25 μM) | A (12.5 μM<EC99≤25 μM)
N[C@@H](C(=O)N1CCN(Cc2scc3c2OCCO3)CC1)C1CCN(CCc2cc(Cl)ccc2-c2ccccc2)CC1 [Example 11, Hydrobromide of (R)-2-amino-2-(1-(2-(4-chloro-[1,1′-biphenyl]-2-yl)ethyl)piperidin-4-yl)-1-(4-((2,3-dihydrothieno[3,4-b][1,4]dioxin-5-yl)methyl)piperazin-1-yl)ethan-1-one] | B (25 μM<EC99≤100 μM) | B (25 μM<EC99≤100 μM) | B (25 μM<EC99≤100 μM) | B (25 μM<EC99≤100 μM) | A (12.5 μM<EC99≤25 μM)
N[C@@H](C(=O)N1CCN(Cc2c(F)cccc2OCC(F)F)CC1)C1CCN(CCc2cc(Cl)ccc2-c2ccccc2)CC1 [Example 18, Hydrobromide of (R)-2-amino-2-(1-(2-(4-chloro-[1,1′-biphenyl]-2-yl)ethyl)piperidin-4-yl)-1-(4-(2-(2,2-difluoroethoxy)-6-fluorobenzyl)piperazin-1-yl)ethan-1-one] | B (25 μM<EC99≤100 μM) | B (25 μM<EC99≤100 μM) | B (25 μM<EC99≤100 μM) | A (12.5 μM<EC99≤25 μM) | A (12.5 μM<EC99≤25 μM)
CCOc1cccc(F)c1CN1CCN(C(=O)[C@H](N)C2CCN(CCc3ccccc3)CC2)CC1 [Example 114, Hydrochloride of (R)-2-amino-1-(4-(2-ethoxy-6-fluorobenzyl)piperazin-1-yl)-2-(1-phenethylpiperidin-4-yl)ethan-1-one] | C (100 μM<EC99) | C (100 μM<EC99) |  |  | 
COc1ccccc1CN1CCN(C(=O)[C@H](N)C2CCN(CCc3ccc(Cl)s3)CC2)CC1 [Example 134, Hydrochloride of (R)-2-amino-2-(1-(2-(5-chlorothiophen-2-yl)ethyl)piperidin-4-yl)-1-(4-(2-methoxybenzyl)piperazin-1-yl) ethan-1-one] | C (100 μM<EC99) | C (100 μM<EC99) |  |  | 
COc1ccccc1CN1CCN(C(=O)[C@H](N)C2CCN(CCc3cccc(Cl)c3)CC2)CC1 [Example 140, hydrochloride of (R)-2-amino-2-(1-(3-chlorophenethyl)piperidin-4-yl)-1-(4-(2-methoxybenzyl)piperazin-1-yl)ethan-1-one] | C (100 μM<EC99) | C (100 μM<EC99) |  |  | 
O=C(CN1CCN(CCc2ccccc2)CC1)N1CCN(Cc2ccccc2OC(F)F)CC1 [Example 200, hydrochloride of 1-(4-(2-(difluoromethoxy)benzyl)piperazin-1-yl)-2-(4-phenethylpiperazin-1-yl)ethan-1-one] | B (25 μM<EC99≤100 μM) | B (25 μM<EC99≤100 μM) |  |  | 
COc1cccc(F)c1CN1CCN(C(=O)CN2CCN(CCc3ccccc3)CC2)CC1 [Example 215, hydrochloride of 1-(4-(2-fluoro-6-methoxybenzyl)piperazin-1-yl)-2-(4-phenethylpiperazin-1-yl)ethan-1-one] | A (12.5 μM<EC99≤25 μM) | S (EC99≤12.5 μM) |  |  | 
CCOc1ccccc1CN1CCN(C(=O)CN2CCN(CCc3ccccc3)CC2)CC1 [Example 220, Hydrochloride of 1-(4-(2-ethoxybenzyl)piperazin-1-yl)-2-(4-phenethylpiperazin-1-yl) ethan-1-one] |  | S (EC99≤12.5 μM) |  |  | 
COc1ccc(F)c(F)c1CN1CCN(C(=O)CN2CCN(CCc3ccccc3)CC2)CC1 [Example 247, Hydrochloride of 1-(4-(2,3-difluoro-6-methoxybenzyl)piperazin-1-yl)-2-(4-phenethylpiperazin-1-yl)ethan-1-one] | A (12.5 μM<EC99≤25 μM) | B (25 μM<EC99≤100 μM) |  |  | 
COc1ccsc1CN1CCN(C(=O)CN2CCN(CCc3ccccc3)CC2)CC1 [Example 249, Hydrochloride of 1-(4-((3-methoxythiophen-2-yl)methyl)piperazin-1-yl)-2-(4-phenethylpiperazin-1-yl)ethan-1-one] | C (100 μM<EC99) | C (100 μM<EC99) |  |  | 
COc1ccccc1CN1CCN(C(=O)C(C)N2CCN(CCc3ccccc3)CC2)CC1 (stereo not shown) [Example 261, hydrochloride of 1-(4-(2-methoxybenzyl)piperazin-1-yl)-2-(4-phenethylpiperazin-1-yl)propan-1-one] | A (12.5 μM<EC99≤25 μM) | B (25 μM<EC99≤100 μM) |  |  | 
COc1ccccc1CN1CCN(C(=O)CN2CCN(CCC3CCCCC3)CC2)CC1 [Example 275, 2-(4-(2-Cyclohexylethyl)piperazin-1-yl)-1-(4-(2-methoxybenzyl)piperazin-1-yl) ethan-1-one and hydrochloride thereof] | S (EC99≤12.5 μM) | A (12.5 μM<EC99≤25 μM) |  |  | 
COc1ccccc1CN1CCN(C(=O)CN2CCC(C#N)(CCc3ccccc3)CC2)CC1 [Example 401, Hydrochloride of 1-(2-(4-(2-methoxybenzyl)piperazin-1-yl)-2-oxoethyl)-4-phenethylpiperidine-4-carbonitrile] | B (25 μM<EC99≤100 μM) | C (100 μM<EC99) |  |  | 
COc1ccccc1CN1CCN(C(=O)CN2CCC(N(C)Cc3ccccc3)CC2)CC1 [Example 420, hydrochloride of 2-(4-(benzyl(methyl)amino)piperidin-1-yl)-1-(4-(2-methoxybenzyl)piperazin-1-yl)ethan-1-one] | C (100 μM<EC99) | C (100 μM<EC99) | C (100 μM<EC99) |  | 
